# Experimental data taken from PubChem BioAssay (NCI).
#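 Compound exposure: 48 hours, 5 concentrations, 96-well plates. TGI: total growth inhibition.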
# How the values were obtained:
# Assay in all cases: NCI tumour cell line growth inhibition, 48 h
# OVCAR-5 ovarian = tested on: OVCAR-5 ovarian
# HOP-92 NSCLC = tested on: HOP-92 NSCLC
# SF-295 CNS = tested on: SF-295 CNS
# OVCAR-4 ovarian = tested on: OVCAR-4 ovarian
# ACHN renal = tested on: ACHN renal
# HT29 colon = tested on: HT29 colon
# MDA-N = tested on: MDA-N
# SK-OV-3 ovarian = tested on: SK-OV-3 ovarian
# HOP-62 NSCLC = tested on: HOP-62 NSCLC
# SK-MEL-2 melanoma = tested on: SK-MEL-2 melanoma
# NCI-H460 lung = tested on: NCI-H460 lung
# EKVX NSCLC = tested on: EKVX NSCLC
# SF-539 CNS = tested on: SF-539 CNS
# TK-10 renal = tested on: TK-10 renal
# MALME-3M melanoma = tested on: MALME-3M melanoma
# OVCAR-3 ovarian = tested on: OVCAR-3 ovarian
# MDA-MB-435 = tested on: MDA-MB-435
# DU-145 prostate = tested on: DU-145 prostate
# SN12C renal = tested on: SN12C renal
# A498 renal = tested on: A498 renal
# MCF7 breast = tested on: MCF7 breast
# NCI-H522 lung = tested on: NCI-H522 lung
# HCC-2998 colon = tested on: HCC-2998 colon
# IGROV1 ovarian = tested on: IGROV1 ovarian
# U251 CNS = tested on: U251 CNS
# 786-0 renal = tested on: 786-0 renal
# A549 NSCLC = tested on: A549 NSCLC
# BT-549 breast = tested on: BT-549 breast
# OVCAR-8 ovarian = tested on: OVCAR-8 ovarian
# MDA-MB-231 breast = tested on: MDA-MB-231 breast
# SF-268 CNS = tested on: SF-268 CNS
# HL-60(TB) leukemia = tested on: HL-60(TB) leukemia
# UO-31 renal = tested on: UO-31 renal
# COLO 205 colon = tested on: COLO 205 colon
# HCT-116 colon = tested on: HCT-116 colon
# HCT-15 colon = tested on: HCT-15 colon
# KM12 colon = tested on: KM12 colon
# UACC-62 melanoma = tested on: UACC-62 melanoma
# SK-MEL-28 melanoma = tested on: SK-MEL-28 melanoma
# HS 578T breast = tested on: HS 578T breast
# SR leukemia = tested on: SR leukemia
# K-562 leukemia = tested on: K-562 leukemia
# SW-620 colon = tested on: SW-620 colon
# UACC-257 melanoma = tested on: UACC-257 melanoma
# RXF 393 renal = tested on: RXF 393 renal
# CCRF-CEM leukemia = tested on: CCRF-CEM leukemia
# SNB-75 CNS = tested on: SNB-75 CNS
# LOX IMVI melanoma = tested on: LOX IMVI melanoma
# MOLT-4 leukemia = tested on: MOLT-4 leukemia
# M14 melanoma = tested on: M14 melanoma
# CAKI-1 renal = tested on: CAKI-1 renal
# PC-3 prostate = tested on: PC-3 prostate
# NCI-H23 lung = tested on: NCI-H23 lung
# SK-MEL-5 melanoma = tested on: SK-MEL-5 melanoma
# SNB-19 CNS = tested on: SNB-19 CNS
# NCI-H226 lung = tested on: NCI-H226 lung
# NCI/ADR-RES ovarian = tested on: NCI/ADR-RES ovarian
# RPMI-8226 leukemia = tested on: RPMI-8226 leukemia
# T-47D breast = tested on: T-47D breast
structure (smiles),measurement,setting,value
CC(C)C1=C(O)C2=C(C(=O)C1=O)C1(C)CCCC(C)(C)C1CC2O (configuration not stated),TGI,OVCAR-5 ovarian,43.2 µM
same,TGI,HOP-92 NSCLC,13.3 µM
same,TGI,SF-295 CNS,64.4 µM
same,TGI,OVCAR-4 ovarian,82.6 µM
same,TGI,ACHN renal,13.2 µM
same,TGI,HT29 colon,62 µM
same,TGI,MDA-N,4.76 µM
same,TGI,SK-OV-3 ovarian,45.5 µM
same,TGI,HOP-62 NSCLC,21.1 µM
same,TGI,SK-MEL-2 melanoma,11 µM
same,TGI,NCI-H460 lung,12.8 µM
same,TGI,EKVX NSCLC,49.7 µM
same,TGI,SF-539 CNS,52.7 µM
same,TGI,TK-10 renal,> 100 µM
same,TGI,MALME-3M melanoma,16.6 µM
same,TGI,OVCAR-3 ovarian,29 µM
same,TGI,MDA-MB-435,13.6 µM
same,TGI,DU-145 prostate,> 100 µM
same,TGI,SN12C renal,28 µM
same,TGI,A498 renal,38.6 µM
same,TGI,MCF7 breast,22.8 µM
same,TGI,NCI-H522 lung,53.7 µM
same,TGI,HCC-2998 colon,12 µM
same,TGI,IGROV1 ovarian,77.7 µM
same,TGI,U251 CNS,> 100 µM
same,TGI,786-0 renal,> 100 µM
same,TGI,A549 NSCLC,34.8 µM
same,TGI,BT-549 breast,25.9 µM
same,TGI,OVCAR-8 ovarian,90.7 µM
same,TGI,MDA-MB-231 breast,9.46 µM
same,TGI,SF-268 CNS,> 100 µM
same,TGI,HL-60(TB) leukemia,30.4 µM
same,TGI,UO-31 renal,17.9 µM
same,TGI,COLO 205 colon,> 100 µM
same,TGI,HCT-116 colon,> 100 µM
same,TGI,HCT-15 colon,13.8 µM
same,TGI,KM12 colon,19 µM
same,TGI,UACC-62 melanoma,8.66 µM
same,TGI,SK-MEL-28 melanoma,38.5 µM
same,TGI,HS 578T breast,> 100 µM
same,TGI,SR leukemia,58.4 µM
same,TGI,K-562 leukemia,> 100 µM
same,TGI,SW-620 colon,63.2 µM
same,TGI,UACC-257 melanoma,31.9 µM
same,TGI,RXF 393 renal,5.89 µM
same,TGI,CCRF-CEM leukemia,23.6 µM
same,TGI,SNB-75 CNS,> 100 µM
same,TGI,LOX IMVI melanoma,> 100 µM
same,TGI,MOLT-4 leukemia,> 100 µM
same,TGI,M14 melanoma,15.3 µM
same,TGI,CAKI-1 renal,24.1 µM
same,TGI,PC-3 prostate,31.7 µM
same,TGI,NCI-H23 lung,3.93 µM
same,TGI,SK-MEL-5 melanoma,5.23 µM
same,TGI,SNB-19 CNS,21.4 µM
CCCCc1ccc(-n2c(C)c(COC(=O)NC)c(COC(=O)NC)c2C)cc1,TGI,OVCAR-5 ovarian,17.1 µM
same,TGI,HOP-92 NSCLC,11.5 µM
same,TGI,SF-295 CNS,24.4 µM
same,TGI,ACHN renal,7.22 µM
same,TGI,HT29 colon,24.9 µM
same,TGI,MDA-N,31.3 µM
same,TGI,SK-OV-3 ovarian,14.1 µM
same,TGI,HOP-62 NSCLC,21.6 µM
same,TGI,NCI-H460 lung,18 µM
same,TGI,EKVX NSCLC,27.8 µM
same,TGI,NCI-H226 lung,2.85 µM
same,TGI,SF-539 CNS,15.9 µM
same,TGI,TK-10 renal,12.4 µM
same,TGI,MALME-3M melanoma,22 µM
same,TGI,OVCAR-3 ovarian,24.5 µM
same,TGI,MDA-MB-435,28.1 µM
same,TGI,DU-145 prostate,26.3 µM
same,TGI,SN12C renal,14.5 µM
same,TGI,NCI/ADR-RES ovarian,27.4 µM
same,TGI,A498 renal,2.6 µM
same,TGI,MCF7 breast,19.3 µM
same,TGI,NCI-H522 lung,9.3 µM
same,TGI,HCC-2998 colon,30.7 µM
same,TGI,U251 CNS,17.4 µM
same,TGI,786-0 renal,16 µM
same,TGI,A549 NSCLC,19.6 µM
same,TGI,OVCAR-8 ovarian,16.5 µM
same,TGI,RPMI-8226 leukemia,19.8 µM
same,TGI,MDA-MB-231 breast,17.8 µM
same,TGI,SF-268 CNS,20.3 µM
same,TGI,HL-60(TB) leukemia,24.4 µM
same,TGI,UO-31 renal,10.6 µM
same,TGI,COLO 205 colon,19.6 µM
same,TGI,T-47D breast,27 µM
same,TGI,HCT-116 colon,17.8 µM
same,TGI,HCT-15 colon,20.9 µM
same,TGI,KM12 colon,29.3 µM
same,TGI,UACC-62 melanoma,10.5 µM
same,TGI,SK-MEL-28 melanoma,33.8 µM
same,TGI,HS 578T breast,45.9 µM
same,TGI,SR leukemia,17.2 µM
same,TGI,K-562 leukemia,> 100 µM
same,TGI,SW-620 colon,21.4 µM
same,TGI,UACC-257 melanoma,24 µM
same,TGI,RXF 393 renal,9.8 µM
same,TGI,CCRF-CEM leukemia,18.4 µM
same,TGI,SNB-75 CNS,19.4 µM
same,TGI,LOX IMVI melanoma,18.4 µM
same,TGI,M14 melanoma,24.5 µM
same,TGI,CAKI-1 renal,15.9 µM
same,TGI,PC-3 prostate,32 µM
same,TGI,NCI-H23 lung,26.4 µM
same,TGI,SK-MEL-5 melanoma,23.5 µM
same,TGI,SNB-19 CNS,30.4 µM
N#C/C(=C\c1cc(F)cc(F)c1)c1ccccn1,TGI,OVCAR-5 ovarian,> 100 µM
same,TGI,HOP-92 NSCLC,48.1 µM
same,TGI,SF-295 CNS,60.2 µM
same,TGI,OVCAR-4 ovarian,> 100 µM
same,TGI,ACHN renal,> 100 µM
same,TGI,HT29 colon,> 100 µM
same,TGI,MDA-N,> 100 µM
same,TGI,SK-OV-3 ovarian,> 100 µM
same,TGI,HOP-62 NSCLC,> 10 µM
same,TGI,SK-MEL-2 melanoma,> 100 µM
same,TGI,NCI-H460 lung,74 µM
same,TGI,EKVX NSCLC,44.3 µM
same,TGI,NCI-H226 lung,56.9 µM
same,TGI,SF-539 CNS,43.5 µM
same,TGI,TK-10 renal,> 100 µM
same,TGI,MALME-3M melanoma,73.9 µM
same,TGI,OVCAR-3 ovarian,> 100 µM
same,TGI,DU-145 prostate,> 100 µM
same,TGI,SN12C renal,62.9 µM
same,TGI,NCI/ADR-RES ovarian,66.9 µM
same,TGI,MCF7 breast,> 100 µM
same,TGI,NCI-H522 lung,74.8 µM
same,TGI,HCC-2998 colon,60 µM
same,TGI,IGROV1 ovarian,> 100 µM
same,TGI,U251 CNS,40 µM
same,TGI,786-0 renal,> 10 µM
same,TGI,A549 NSCLC,> 100 µM
same,TGI,BT-549 breast,97.1 µM
same,TGI,OVCAR-8 ovarian,45.4 µM
same,TGI,RPMI-8226 leukemia,> 100 µM
same,TGI,SF-268 CNS,52.8 µM
same,TGI,HL-60(TB) leukemia,> 10 µM
same,TGI,UO-31 renal,> 100 µM
same,TGI,COLO 205 colon,> 10 µM
same,TGI,HCT-116 colon,> 100 µM
same,TGI,HCT-15 colon,34.2 µM
same,TGI,KM12 colon,68 µM
same,TGI,UACC-62 melanoma,> 100 µM
same,TGI,SK-MEL-28 melanoma,> 100 µM
same,TGI,SR leukemia,88.6 µM
same,TGI,K-562 leukemia,> 100 µM
same,TGI,SW-620 colon,> 10 µM
same,TGI,UACC-257 melanoma,> 100 µM
same,TGI,RXF 393 renal,> 100 µM
same,TGI,CCRF-CEM leukemia,> 100 µM
same,TGI,SNB-75 CNS,> 100 µM
same,TGI,MOLT-4 leukemia,45.8 µM
same,TGI,M14 melanoma,88.6 µM
same,TGI,CAKI-1 renal,> 100 µM
same,TGI,PC-3 prostate,> 100 µM
same,TGI,NCI-H23 lung,72.8 µM
same,TGI,SK-MEL-5 melanoma,> 100 µM
same,TGI,SNB-19 CNS,> 100 µM
